For one assay, the target named is T1, Ang II (Homo sapiens, UniProt P01019).
T1 construct: host or cells: injected into TGR(hAGT)L1623 rats
Put plainly: Specificity of immunoneutralization: pressor response to Ang II. The assay is classed as in vivo. Here is the method:
In a separate group of 12 TGR(hAGT)L1623 rats (6 females) the blood pressure and heart rate responses to intravenous bolus injection of a monoclonal antibody directed against the human amino acid sequence of Ang-(1-12) [Ang-(1-12)-mAb] was administered at a dose of 30 mg/kg. […] The Ang-(1-12)-mAb was diluted in physiological saline to a concentration of 30 mg in a volume not to exceed 1 mL of buffered saline. The specificity of the immunoneutralization of Ang-(1-12) was evaluated in additional experiments in which the rat sequence of Ang-(1-12) (300 pmol/kg, n=2); Ang II (50 pmol/kg; n=3 TGR(hAGT)L1623 rats) or an […] mouse IgG (30 mg/kg, n=4 TGR(hAGT)L1623 rats; Innovative Research, Inc. Novi, MI) were administered intravenously.

In a further assay the test system is TGR(hAGT)L1623 rats. The conditions noted are these: chronic administration; cited from earlier work.
For assay [1], the system named is isolated carotid artery rings. Put plainly: Ang-(1-12) constrictor activity in isolated carotid artery rings. On the set-up: species or system rat. The conditions noted are these: concentration of 5×10^−1; SD and TGR(hAGT)L1623 rats; FIG. 7. The text has this:
Efficacy of Ang-(1-12) Immunoneutralization in Isolated Carotid Arteries. The ability of the Ang-(1-12)-mAb to block Ang-(1-12) vasoconstrictor activity in 6 SD and 3 TGR(hAGT)L1623 rats was further assessed in isolated carotid artery rings that were mounted in organ chambers as described elsewhere.^3 Under a dissecting microscope, both carotid arteries were dissected free of adventitial tissue, cut into 1.5-2 mm segments and mounted on a myograph (Multi Myograph, Model 610M Danish Myo Technologies, Aarhus, Denmark) using two stainless steel hooks. In all the arterial segments, the endothelium was disrupted by passing a human hair through the lumen of the vessel. The myograph chamber was filled with Krebs-Henseleit buffer (KHB) solution, maintained at 37° C. and aerated with 95% O2/5% CO2. The vessels were washed and incubated for 30 min before determining the optimal diameter. Each arterial segment was stretched to its individual optimal lumen diameter following the normalization procedure previously described. In all studies, after obtaining the optimal diameter, a 30-min equilibration period preceded the addition of the test substances. Contractile responses to a single dose of 62.5 mM KCl was obtained for all segments by calculating the average of three consecutive doses tested at 15 min intervals. This response was used to normalize tension between individual arterial segments. […]

Assay [2] has as its system Sprague Dawley (SD) rats and TGR(hAGT)L1623 rats. Put plainly: Systemic vasoconstrictor activity of intravenous h-Ang-(1-12). The assay is classed as in vivo, rat. The conditions noted are these: for time to peak of increase in mean arterial pressure: 75-300 pmol/kg i.v. Here is the method: Efficacy of Ang-(1-12) Immunoneutralization in vivo: We examined the systemic vasoconstrictor activity of Ang-(1-12) (dose range 75-300 pmol) in 20 (10 females) Sprague Dawley (SD) rats (age 12-weeks) and 20 (10 female) other rats expressing the human sequence of the AGT gene [TGR(hAGT)L1623] (age 10-12 weeks) following induction of general anesthesia with thio-butabarbital sodium [Inactin® (135 mg/kg, i.p.)] and tracheal intubation for mechanical ventilation. Plastic catheters were introduced into a left carotid artery [PE-50 catheter attached to a heparinized saline wash syringe (15 USP U/mL) and a femoral vein (PE-10) for drug delivery. Phasic and mean arterial pressures, recorded with a True Wave pressure transducer (Edwards Lifesciences, Co, Irvine, CA) connected to the arterial cannula, were processed by a data-acquisition and analysis system with Acknowledge 5 software (MP160, BIOPAC System Inc., Goleta, CA). Heart rate was derived by the software from the electrical analysis of the rise portion of the pressure waveform.

On to “angiotensin II (DRVYIHPF; listed as Homo sapiens) [Ang II]”, for which the “peak mean arterial pressure after bolus intravenous Ang II” value is 117±13 mm Hg in the assay with Ang II (30-60 min after delivery of the Ang-(1-12) mAb, baseline 100±12 mm Hg) and 114±8 mm Hg in the assay with Ang II (before the Ang-(1-12) mAb, baseline 95±6 mm Hg).
Consider `CCCCC(=O)N(Cc1ccc(-c2ccccc2-c2nnn[nH]2)cc1)[C@H](C(=O)O)C(C)C` [valsartan], for which the effect on hypertension entry in the assay on TGR(hAGT)L1623 rats is listed as “Reversal of the hypertension”.
Consider “human angiotensin-(1-12) (DRVYIHPFHLVI; listed as Homo sapiens) [h-Ang-(1-12)]”, for which the “constrictor responses in carotid artery rings normalized for KCL” value in assay [1] was “significant constrictor responses”. The results for the “time to peak of increase in mean arterial pressure” value in assay [2] (SD rats) and in assay [2] (TGR(hAGT)L1623 rats) were 32.45 ± 1.08 s and 36.20 ± 1.52 s, respectively. Besides, the “change in mean arterial pressure” value in assay [2] (i.v. doses between 75 pmol/kg and 300 pmol/kg) was “rapid and dose-dependent increases”.

Values taken from patent publication US12365739B2, “Monoclonal antibodies to angiotensin-(1-12), compositions including the same, and methods of use thereof” (Wake Forest University Health Sciences, priority 2021, dated 2025).
